This passage reports inhibition and Activity results from ChEMBL document CHEMBL3259572, “Euodenine A: a small-molecule agonist of human TLR4” (J Med Chem, 2014).

The nature of data set [1]: Cytotoxicity against PHA-stimulated human PBMC assessed as reduction in cell viability at 50 uM by WST-1 cell proliferation assay. Type of data set: cell-based. (In general: Tetrazolium dyes change colour on reduction, which living cells bring about.)
The subject of data set [2] is PBMC. As to the kind of experiment: Cytotoxicity against PHA-stimulated human PBMC assessed as reduction in cell viability at 20 uM by WST-1 cell proliferation assay. Format: cell-based.

The structures appear in SMILES notation.

On to `COC[C@@H]1[C@@H](c2ccc(OC)c(OC)c2)[C@H]2c3c(c4ccccc4n(C)c3=O)OC(C)(C)[C@@H]12`, for which, in data set [1], the inhibition at 50 µM was found to be 30%. Moreover, the Activity result in data set [2] is “Non-toxic”.

A word on the inhibition: it is the drop in the measured response relative to a control, in per cent.
